In patent publication US20230218629A1, “THERAPEUTIC COMPOSITIONS AND METHODS FOR PREVENTION AND TREATMENT OF DIASTOLIC DYSFUNCTION” (AMBETEX PTY LTD, priority 2019, published 2023):

Tests used:
Assay type in all cases: in vivo
obese mice (HFD) = experiment: Verubecestat-High fat diet (HFD) treatment study
Protocol: Verubecestat-High fat diet (HFD) treatment study: At 12 weeks of age, mice (n=30) were placed on a HFD with 43% of calories from fat (23.5% by weight; SF04-001 High Fat Rodent Diet Based on D12451, Specialty Feeds, Glen Forrest, Wash.). After 13 weeks of the diet period, echocardiography was performed on all mice to obtain pre-drug treatment measures of cardiac function. Mice were allocated to treatment groups so that measures of cardiac function and morphology were matched as best as possible. Verubecestat (MedChemExpress) was resuspended in 100% DMSO before being diluted in a hydroxypropyl cellulose solution to give a final solution containing 6.25 mg/mL Verubecestat in 10% hydroxypropyl cellulose and 5% DMSO. A vehicle solution containing 10% hydroxypropyl cellulose and 5% DMSO was also made. Aliquots of both drug and vehicle were stored at −80° C. until required. The HFD/Verubecestat group was administered 25 mg/kg of Verubecestat per day by oral gavage, while the HFD/control group received an equivalent volume of vehicle. Echocardiography was then performed following 4 weeks of the treatment period to obtain post-drug treatment measures of cardiac function. Following 5 weeks of the drug administration, mice were humanely killed via cervical dislocation and blood was immediately obtained via cardiac puncture and stored in a heparinised tube. The heart, epididymal fat pad, mesenteric fat pad, liver, quadricep, hind limb and brain were then immediately dissected. The heart was blotted prior to being weighed and all tissues were snap frozen in liquid nitrogen and stored at −80° C. Plasma Aβ species were measured using high sensitivity ELISA kits (Wako Diagnostics) and plasma that was diluted 1:10 with assay buffer.

Male C57BL6 mice [1] = experiment: Aβ40 administration study
Protocol: Aβ40 administration study: Lyophilised recombinant Aβ40 (Millipore) and scrambled control peptide (ScrAβ40; Millipore) were resuspended in 1% NH4OH and aliquoted at 200 ng/ml in H2O and stored at −80° C. for no longer than 4 weeks. Male C57BL6 mice were obtained from the Animal Resource Centre (Perth, Wash.) at 4 weeks of age and housed with 4 mice per cage on a 12 hr light/dark cycle at a temperature of 22° C. and a constant humidity with a normal rodent diet. At 12 weeks of age, mice were grouped according to body mass and composition, determined by EchoMRI. Mice were then administered 1 μg of recombinant Aβ40 or ScrAβ40 (n=12/group per cohort) by i.p. injection once/day for 5 wks. After 4 weeks of peptide administration, cardiac function was assessed by echocardiography as follows. Mice were anaesthetised with inhalation of 1.5% isoflurane anaesthesia and echocardiography was performed using the Phillips HD15 diagnostic ultrasound system with a 15 MHz linear-array transducer by an experienced veterinarian. The velocity of blood flow through the mitral valve was analysed using Doppler mode imaging. […] Doppler imaging was also utilised to measure the velocity of blood flow through the aortic valve. The measurements were then used to calculate the ejection time, peak aortic flow and heart rate. M-mode imaging of the left ventricle was used to measure the thickness of the inter-ventricular septum (IVS), left ventricular internal diameter (LVID) and left ventricular posterior wall (LVPW) in both diastole (d) and end-systole (s) as well as systolic measures such as ejection fraction and fractional shortening. An estimation of LV mass was calculated from the m-mode imaging by using the formula (1.05[LVIDd+LVPWd+IVSd]^3−[LVIDd]^3) by Troy et al. (1972). Mice were humanely killed by cervical dislocation 1 week later. Blood was obtained immediately following by cardiac puncture and the heart, and other tissues were immediately removed. Hearts were washed in ice cold PBS and weighed prior to being snap frozen in liquid nitrogen. Plasma Aβ40 was measured using a high sensitivity ELISA kit (Wako Diagnostics) and plasma that was diluted 1:10 with assay buffer.

Male C57BL6 mice [2] = experiment: Aβ42 administration study: cardiac function by echocardiography
Protocol: After 4 weeks of peptide administration, cardiac function was assessed by echocardiography as follows. Mice were anaesthetised with inhalation of 1.5% isoflurane anaesthesia and echocardiography was performed using the Phillips HD15 diagnostic ultrasound system with a 15 MHz linear-array transducer by an experienced veterinarian. The velocity of blood flow through the mitral valve was analysed using Doppler mode imaging. […] Doppler imaging was also utilised to measure the velocity of blood flow through the aortic valve. The measurements were then used to calculate the ejection time, peak aortic flow and heart rate. M-mode imaging of the left ventricle was used to measure the thickness of the inter-ventricular septum (IVS), left ventricular internal diameter (LVID) and left ventricular posterior wall (LVPW) in both diastole (d) and end-systole (s) as well as systolic measures such as ejection fraction and fractional shortening. An estimation of LV mass was calculated from the m-mode imaging by using the formula (1.05[LVIDd+LVPWd+IVSd]^3−[LVIDd]^3) by Troy et al. (1972). Mice were humanely killed by cervical dislocation 1 week later. Blood was obtained immediately following by cardiac puncture and the heart, and other tissues were immediately removed. Hearts were washed in ice cold PBS and weighed prior to being snap frozen in liquid nitrogen.

Male C57BL6 mice [3] = experiment: Aβ42 administration study: GTT with glucose tracers, cardiac metabolism
Protocol: At 12 weeks of age, mice were grouped according to body mass and composition, determined by EchoMRI. […] An i.p. glucose tolerance test (GTT) was performed on the final treatment day following an overnight fast. Mice were administered 2 g/kg lean mass of glucose including radioactive glucose tracers, prepared as follows. 100 μl of 1 μCi/μl glucose analogue, [^3H]-2-deoxyglucose (2-DOG), and 500 μl of 200 μCi/mL U-^14C glucose were evaporated to dryness before redissolving the radioactive tracers in 1 mL of 50% glucose. This produced a 50% glucose solution containing 100 μCi/mL [^3H]-2-DOG and 100 μCi/mL U-^14C glucose. The tail tip of each mouse was cut off and the blood glucose concentration of a blood sample was measured using an AccuCheck II glucometer (Roche). The GTT was initiated via intraperitoneal injection of the radiolabelled glucose solution (2 g/kg body weight, 10 uCi/animal) into the overnight-fasted mice. Further blood samples were taken at 15, 30, 45, 60 and 90 minutes after the injection for the measurement of blood glucose. Blood samples (30 μl) were also taken from the tail tip at each time point and diluted in 100 μl of saline. These samples were then centrifuged and the supernatant collected. 50 μl of the supernatant was diluted in 500 μl of distilled water and then suspended in 4 mL of Ultima Gold XR scintillation fluid (Packard Bioscience). Blood radioactivity was determined at each time point by performing liquid scintillation counting on each solution using the Beckman scintillation counter (LS6000 SC). At the conclusion of the GTT, mice were killed via cervical dislocation. Blood was obtained immediately following by cardiac puncture and the heart, and other tissues were immediately removed. Hearts were washed in ice cold PBS and weighed prior to being snap frozen in liquid nitrogen. The heart (30 mg), epididymal fat pad (30 mg and quadriceps skeletal muscle (30 mg) were homogenised in 1.5 ml of distilled water. The homogenate was centrifuged at 3000 rpm for 10 min at 4° C. 400 μl of the supernatant was diluted into 1.6 mL of distilled water and then suspended in 14 mL of Ultima Gold XR scintillation fluid (Packard Bioscience). The radioactivity of each sample (from both [3H]-2-DOG6P and [^3H]-2-DOG) was determined by liquid scintillation counting using the Beckman scintillation counter (LS6000 SC). The ^3H radioactivity was used to measure glucose uptake into each tissue.
To determine the incorporation of U-^14C glucose into triglyceride and the total triglyceride content in the heart, an extraction of triglyceride was carried out using a chloroform/methanol mixture. Samples of heart (30 mg) were hand-homogenised in 2 mL of chloroform/methanol (2:1) and the homogeniser rinsed in a further 2 mL of chloroform/methanol (2:1), and the washings being added to the original extract in 10 mL tubes. The tubes were tightly capped and mixed on a rotator overnight to maximise extraction of the triglycerides. 2 ml of 0.6% saline was then added, to facilitate the separation of the organic and aqueous phases, after which the tubes were mixed thoroughly and then centrifuged at 2000 rpm for 10 minutes. […] The amount of U-^14C glucose clearance into the lipid fraction was measured by suspending 100 μl of the triglyceride solution in 5 mL of Ultima Gold XR scintillation fluid (Packard Bioscience), followed by scintillation counting using the Beckman scintillation counter (LS6000 SC).

CN1C(N)=N[C@](C)(c2cc(NC(=O)c3ccc(F)cn3)ccc2F)CS1(=O)=O [Verubecestat, verubecestat]
plasma Aβ40 (obese mice (HFD); 25 mg/kg per day oral gavage, obese mice, FIG. 7A): decreased | plasma Aβ42 (obese mice (HFD); 25 mg/kg per day oral gavage, obese mice, FIG. 7B): decreased | DT after treatment, of baseline levels (obese mice (HFD); 4 weeks of daily treatment, 25 mg/kg oral, vehicle group 122%, FIG. 7C): 107%

Aβ40: Lyophilised recombinant Aβ40 (Millipore), amyloid beta peptide
plasma Aβ40 (Male C57BL6 mice [1]; 1 μg/day i.p., 5 weeks, vs ScrAβ40, FIG. 6A): significantly increased | E:A ratio (Male C57BL6 mice [1]; FIG. 6B): did not have any effect | DT (Male C57BL6 mice [1]; FIG. 6C): did not have any effect | ejection fraction (Male C57BL6 mice [1]; FIG. 6E): nor any effect | IVSd (Male C57BL6 mice [1]; FIG. 6F): no effect | LVIDd (Male C57BL6 mice [1]; FIG. 6G): no effect | LV mass (Male C57BL6 mice [1]; FIG. 6H): no effect

Aβ42: Lyophilised recombinant Aβ42 (Millipore), amyloid beta peptide of 42 amino acids
internal dimensions of the left ventricle (LVIDd) (Male C57BL6 mice [2]; FIG. 2B): no effect | deceleration time (Male C57BL6 mice [2]; FIG. 2D): increased | fractional shortening (Male C57BL6 mice [2]; FIG. 2F): reduced | ejection fraction (Male C57BL6 mice [2]; FIG. 2G): reduced | E normalised by isovolumetric relaxation time (IVRT) (Male C57BL6 mice [2]; between groups, FIG. 2E): no significant difference | gross heart weight (Male C57BL6 mice [2]; five weeks Aβ42 vs ScrAβ42, FIG. 2A): no effect | increase in plasma Aβ42 compared with administration of ScrAβ42 (Male C57BL6 mice [3]; 1 μg/day i.p., five weeks, FIG. 1A): approximately 3 fold | cardiac gene expression (inflammation, endoplasmic reticulum stress) (Male C57BL6 mice [3]; FIG. 1E): gene expression changes indicative of cardiac stress responses | whole body glucose tolerance or plasma insulin throughout the GTT (Male C57BL6 mice [3]; after five weeks of peptide administration, vs ScrAβ42): no difference | glucose incorporation into TAG (14C-glucose labelling) (Male C57BL6 mice [3]; heart, FIG. 1C): greater | total TAG (Male C57BL6 mice [3]; heart, FIG. 1D): increased
